Measurements from patent US20090280166A1, “FERRITIN AS A THERAPEUTIC TARGET IN ABNORMAL CELLS” (The Penn State Research Foundation, priority 2005, published 2009).
“Also recorded” adds a separate entry of the source.

Assays:
[1] = tested on: H-ferritin; test: Ferritin in nuclear and cytoplasmic fractions after DFO, alloxan and FAC treatments (Western blot); type: cell-based, human; conditions: SW1088 cells
From the text: FIGS. 9A-9C show nuclear import of ferritin is inhibited by alloxan, whereas cytoplasmic levels of ferritin are not affected. Under resting conditions, SW1088 cells contain ferritin in both nuclear and cytoplasmic compartments. […] The reappearance of ferritin in cytoplasmic and nuclear compartments after DFO treatment (alone) or treatment with DFO+alloxan is affected by the presence of alloxan (alx) and/or FAC in the culture medium. FIG. 9A is a schematic illustration of the experimental procedure, showing the time course of changes in culture conditions. FIG. 9B is a scan of Western blots of nuclear (N) and cytoplasmic (C) extracts of SW1088 cells, resolved by SDS/PAGE. Samples of the nuclear extract contained 20 μg of total protein, whereas samples of the cytoplasmic extract contained […] of total protein. Ferritin was detected with HS-59 mouse monoclonal antibody and horseradish peroxidase-conjugated goat anti-mouse IgG. Lane a, extracts from cells cultured in medium containing 100 μM DFO; lane b, extracts of cells cultured in normal medium; lane c, extracts of cells cultured in 100 μM FAC; lane d, extracts of cells cultured in 100 μM DFO+1 mM alloxan; lane e, extracts of cells cultured in normal medium supplemented with 1 mM alloxan; lane f, extracts of cells cultured in medium supplemented with 100 μM FAC+1 mM alloxan. FIG. 9C is a graph showing a summary of ferritin contents. The relative amounts of ferritin in the nuclear (black bars) and cytoplasmic (striped bars) fractions were measured after an initial treatment with DFO alone or DFO+[…] and a subsequent culture in the presence of DFO alone, normal medium, medium supplemented with FAC, medium supplemented with DFO+alloxan, normal medium+alloxan or normal medium+FAC and alloxan. The relative amounts of ferritin are normalized to the amount of ferritin in the corresponding fractions before the initial DFO treatment.
DFO and alloxan treatments: The iron chelator DFO was used to examine the effect of iron chelation on ferritin localization in the nuclei of astrocytoma cells. Cells were cultured in the presence of 100 μM DFO for 72 h. Alloxan, an inhibitor of O-glycosylation, was used in astrocytoma cell cultures at final concentrations of 0.1 and 1.0 mM. Six cultures were established in parallel and allowed to reach 80% confluence. The first three were treated with 100 μM DFO for 72 h, then rinsed in Hanks balanced salt solution to remove the free DFO and returned to standard medium alone or to a medium containing 0.1 mM FAC (ferric ammonium citrate) or 0.1 mM DFO. After these treatments, culturing was continued for 24 h. Another set of three cultures were treated with 100 μM DFO+1 mM alloxan for 72 h. The cells were rinsed in Hanks balanced salt solution to remove free reagents and returned to standard medium containing 1 mM alloxan or a medium containing 0.1 mM FAC+[…] or a medium containing 100 μM DFO+1 mM alloxan. After these treatments, the culturing was continued for 24 h. At the end of the culture period, cells were harvested and nuclear and cytosolic fractions were prepared as described below.
Nuclear and cytosolic fractions: Plated astrocytoma cells were rinsed in Hanks balanced salts, trypsinized and the cells were collected by centrifugation (800 g for 10 min). The pelleted cells were rinsed twice in ice-cold PBS buffer [0.01 M sodium phosphate (pH 7.4 at 25° C.), 138 mM NaCl and 2.7 mM KCl] and collected by centrifugation. The cell pellets were resuspended in 20 vol. of 10 mM Hepes (pH 7.9 at 25° C.), 1.5 mM MgCl2, 10 mM NaCl and 0.5 mM DTT (dithiothreitol) containing the following protease inhibitors: AEBSF (1 mM), aprotinin (0.8 μM), leupeptin (20 μM), bestatin (40 μM), pepstatin (15 μM) and E-64 (14 μM). Cell suspensions were incubated in ice for 30 min and collected by centrifugation. […]

[2] = Cell viability assay (MTT) of alloxan-treated cells; type: cell-based, human; conditions: human, SW1088 astrocytoma cells, 1 mM alloxan, read-out: cells remaining viable (MTT)
Procedure: (§1) FIG. 10 is a graph showing alloxan inhibits protein O-glycosylation in SW1088 human astrocytoma cells. Cells were grown in triplicate independent cultures in the presence of 0, 100, 500 μM and 1 mM concentrations of alloxan. Aliquots of whole cell lysates from each culture were applied to a nitrocellulose membrane using a vacuum slot blot device. The membrane was blocked in a 5% solution of non-fat dry milk at 21±1° C. for 1 h and incubated overnight with mouse monoclonal anti-O-GlcNAc antibody. Immunocomplexes were detected and quantified. As an internal control for this assay, membrane loadings of 1 (♦), 5 (▪) and 10 (▴) μg of total protein were tested and they gave similar responses to changes in the concentration of alloxan in the original cultures.
(§2) Cell viability assay: Cell viability measurement was performed using the reagent 3-(4,5-dimethylthiazol-2-yl)-2,5-diphenyl-2H-tetrazolium bromide (MTT), obtained from Roche Applied Science (Indianapolis, Ind., U.S.A.). The assay was performed according to the manufacturer's instructions.
(§3) The effect of alloxan on ferritin redistribution is probably due to its influence on protein glycosylation or due to some other currently unknown effect. […] The cells were then harvested and total soluble proteins were analyzed by slot blot for O-glycosylation.

[3] = tested on: SW1088 human astrocytoma cells; test: as above; type: cell-based; conditions: alloxan up to 1.0 mM, 96 h
Procedure: as §1, §2, §3

[4] = tested on: protein O-glycosylation in SW1088 human astrocytoma cells; test: Detection of O-glycosylated proteins by slot blot with anti-O-GlcNAc antibody; type: cell-based; conditions: SW1088 cells, 0, 0.1, 0.5 and 1.0 mM alloxan for 96 h
Procedure: FIG. 10 is a graph showing alloxan inhibits protein O-glycosylation in SW1088 human astrocytoma cells. Cells were grown in triplicate independent cultures in the presence of 0, 100, 500 μM and 1 mM concentrations of alloxan. Aliquots of whole cell lysates from each culture were applied to a nitrocellulose membrane using a vacuum slot blot device. The membrane was blocked in a 5% solution of non-fat dry milk at 21±1° C. for 1 h and incubated overnight with mouse monoclonal anti-O-GlcNAc antibody. Immunocomplexes were detected and quantified. […]
Detection of glycosylated proteins: SW1088 cultures were treated with different concentrations of alloxan for 96 h. […] Protein concentrations were measured and aliquots containing 1, 5 and 10 μg of total cell proteins were applied in triplicate to a 0.2 μm nitrocellulose membrane (Amersham Biosciences). […] Immunocomplexes were detected using peroxidase-conjugated goat anti-mouse IgG (Sigma) and visualized with the ECL+kit (Amersham Biosciences). […]
as §3

[5] = target: recombinant human H-ferritin (rH-ferritin) (Homo sapiens, UniProt P02794); test: Supercoil relaxation assay for iron release from ferritin; type: biochemical; conditions: rH-ferritin with or without 1 mM alloxan
recombinant human H-ferritin (rH-ferritin), sequence (P02794 whole entry): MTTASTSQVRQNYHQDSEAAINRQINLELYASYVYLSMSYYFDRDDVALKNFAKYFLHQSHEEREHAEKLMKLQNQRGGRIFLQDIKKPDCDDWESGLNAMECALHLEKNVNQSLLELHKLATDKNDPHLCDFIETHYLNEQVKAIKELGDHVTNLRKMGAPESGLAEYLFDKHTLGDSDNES
Procedure: Supercoil-relaxation assays were performed with pUC19 plasmid DNA (0.5 μg/assay). FIG. 11A is a scan showing electrophoretic profiles of pUC19 DNA incubated in the presence of recombinant H-ferritin (lanes a-e), recombinant H-ferritin+1 mM alloxan (lanes f-j) and 1 mM alloxan alone (lanes k-o). Reaction times were as indicated. Lane p, a sample of the superhelical pUC19 DNA that was not treated with ferritin. Band assignments: R, relaxed circle form; SC, superhelical topoisomers. FIG. 11B is a graph showing the mole fraction of superhelical DNA as a function of the reaction time for samples containing rH-ferritin (♦), rH-ferritin+1 mM alloxan (▪) and 1 mM alloxan alone (▴). Error bars represent S.D. values.
Supercoil relaxation assay: DNA backbone breakage was detected using a superhelical DNA relaxation assay (Tachon, P. (1989) Free Radical Res. Commun. 7, 1-10; Crowe, A. and Morgan, E. H. (1992) Brain Res. 592, 8-16). The reaction mixtures (30 μl) contained covalently closed circular pUC19 DNA (0.5 μg; Sigma) dissolved in 10 mM Hepes (pH 7.5), 50 mM NaCl, 2.5 mM MgCl2 and 2.5 mM DTT. […] The mole fractions of superhelical and relaxed forms were measured by densitometry of photographic negatives of the gels after staining with 0.5 μg/ml ethidium bromide. […]

[6] = tested on: primary rat astrocytes; test: Longevity of transfected astrocytes (MTT); type: cell-based
Procedure: FIG. 15 is a graph showing the results of the longevity of transfected astrocytes versus control. Cells were transfected and then plated at equal density.
Cells were transfected and then plated at equal density. The longevity experiments were performed in two ways. First, cell viability was monitored in cultures in which the media was changed every seven days. In the second experiment, the media was not changed for 30 days to test nutrient deprivation. An MTT assay was performed on randomly selected cell cultures from 24 well plates every two weeks to monitor cell viability. […] The non-transfected astrocytes, however, die at an increased rate compared to the ferritin transfected cells. We have continued the study out to five months on the transfected cells, but none of the non-transfected cells are alive.
Thirdly, the non-NLS ferritin translocated to the nucleus over time.

[7] = tested on: rat primary astrocytes; test: Cytotoxicity of iron compound TMHF on transfected astrocytes (MTT); type: cell-based; conditions: three concentrations of TMHF
Procedure: FIG. 16 is a graph showing the cytotoxicity profile of stress factors on rat primarily astrocytes transfected with NLS and non-NLS H ferritin construct. Cytotoxicity was determined by MTT assay after treatment with three different concentrations of soluble iron compound 3,5,5-trimethyl (hexanoyl) ferrocene (TMHF). A total of 12 trials were run in triplicate for each sample and the grand mean and SE are reported.
Cytotoxicity was determined by MTT assay after treatment with three different concentrations of soluble iron compound 3,5,5-trimethyl (hexanoyl) ferrocene (TMHF). A total of 12 trials were run in triplicate for each sample and the grand mean and SE are reported. […] Other common stressors (hydrogen peroxide, cytokines, hypoxia) will also be examined.

[8] = 100 μM DFO+1 mM alloxan in the initial growth period, then fresh medium

## CC(=O)N(O)CCCCCNC(=O)CCC(=O)N(O)CCCCCNC(=O)CCC(=O)N(O)CCCCCN [DFO, desferoxamine]
[1]; 100 μM DFO
  ferritin content in nuclear and cytoplasmic compartments: significantly decreases ferritin content in both compartments

## O=C1NC(=O)C(=O)C(=O)N1 [alloxan]
[2]
  viability at 96 h, 1 mM: 87 ± 3%
[3]
  effect on cell viability: did not affect cell viability; also recorded: without significant effects on cell viability
[4]
  total amount of O-glycosylated protein: decreases the total amount of O-glycosylated protein in a dose-dependent manner
[1]; [8]
  cytoplasmic ferritin after DFO treatment (reappearance): remained essentially unchanged
  reappearance of nuclear ferritin after DFO treatment: inhibited
[1]; 100 μM DFO+1 mM alloxan in the initial growth period, then fresh medium, listed as Alloxan
  cytoplasmic ferritin after DFO treatment (reappearance): no effect
[1]; 100 μM FAC+1 mM alloxan
  FAC-induced increase in nuclear ferritin: blocked
  FAC-induced increase of cytoplasmic ferritin: not the increase of cytoplasmic ferritin
[1]; DFO + alloxan
  disappearance of ferritin from the nuclear fraction when DFO is added: does not prevent
[5]
  iron release from ferritin (DNA nicking of pUC19): does not effect the rate or amount of iron release from ferritin; also recorded: does not cause a significant release of iron from ferritin

## ferric ammonium citrate [FAC]
[1]; 100 μM FAC added to standard medium after DFO
  increase in nuclear and cytoplasmic ferritin contents relative to levels found in untreated cells: approx. 200%

## ferritin
[6]; media changed every seven days
  survival of transfected cells, media changed: three months
[6]; nutrient deprivation, media not changed
  survival of transfected cells, media not changed: 30 days
[7]
  ability of astrocytes to withstand iron induced stress: increases the ability of primary astrocytes to withstand iron induced stress
